# Source: PMC6282620, “Structural and biochemical characterization of Plasmodium falciparum Hsp70‐x reveals functional versatility of its C‐terminal EEVN motif” (Proteins, 2018)
# Where two headings read alike, the source gives them in different places. Where no end group is shown, it is not given here.
# Key:
# PfHsp70‐xT [1] = target: T1, PfHsp70‐xT (Plasmodium falciparum, UniProt K7NTP5); test: SPR nucleotide (ATP) binding assay; conditions: SPR steady state, PfHsp70‐xT immobilized as ligand, ATP 1.25-20 nM, 25°C, PBS-Tween pH 7.4; mean ± SD of three independent assays; read-out: K D (ATP analyte)
# Method: (§1) The nucleotide binding assay was conducted at 25°C using a BioRad ProteOn XPR36 surface plasmon resonance (SPR) as previously described.22 The assay buffer was constituted of filter sterilized and degassed PBS‐Tween [([…], 1.46 mM KH2PO4, 137 mM NaCl, 3 mM KCl, 0.005% [v/v] Tween 20 and 20 mM EDTA; pH 7.4)]. PfHsp70‐x (1 μg mL^−1) and its truncated version, PfHsp70‐xT (1 μg mL^−1) were immobilized onto respective ProteOn HTE sensor chips as ligands. At these concentrations, we achieved 190 response units (RU) for PfHsp70‐x and 195 RU for PfHsp70‐xT per immobilization surface. Varying concentrations (1.25 nM, 2.50 nM, 5 nM 10 nM and 20 nM) of the analyte (ATP) were injected at a flow rate of 100 μL min^−1 in each horizontal channel and association and dissociation was allowed to occur and monitored for 10 minutes. Steady state equilibrium constant data was processed and analyzed using ProteOn Manager software version 3.1.0.6.
# PfHsp70‐x [2] = target: T2, PfHsp70‐x (Plasmodium falciparum, UniProt K7NTP5); test: SPR nucleotide (ATP) binding assay; conditions: SPR steady state, PfHsp70‐x immobilized as ligand, ATP 1.25-20 nM, 25°C, PBS-Tween pH 7.4; mean ± SD of three independent assays; read-out: K D (ATP analyte)
# Method: as §1
# PfHsp70‐x [3] = target: T2, PfHsp70‐x; test: SPR peptide substrate binding kinetics; conditions: mean ± SD; for Kd: K D, peptide 1.25-20 nM, 25°C, PBS-Tween; for Kd / ka association rate constant: SPR, PfHsp70‐x ligand; for koff: read-out: kd dissociation rate constant, SPR, PfHsp70‐x ligand
# Method: (§2) Association of PfHsp70‐x/PfHsp70‐xT with synthetic peptides that represent typical Hsp70 substrates26 was investigated using surface plasmon resonance (SPR) analysis as previously described.22, 24 Briefly, PfHsp70‐x and PfHsp70‐xT were immobilized onto respective ProteOn GLC sensor chips as ligands. PfHsp70‐x, PfHsp70‐xT (as ligands) were immobilized at concentrations of 0.5 and 1 μg mL^−1. At these concentrations we achieved 190 response units (RU) for PfHsp70‐x, and 193 RU for PfHsp70‐xT per immobilization surface. The assay was conducted at 25°C. Filter sterilized and degassed PBS‐Tween was used as the running buffer. As analytes, aliquots of peptides, representing typical Hsp70 substrates (NRLLTG, NRNNTG, ALLLMYRR, ANNNMYRR, GFRVVLMYRF, GFRNNNMYRF) were prepared at final concentration of 1.25, 2.50, 5, 10, and 20 nM and were injected at 50 μL min^−1 in each horizontal channel. Association was allowed for 2 minutes, dissociation was monitored for 10 minutes. The assay was repeated in the presence of nucleotides 2 mM ATP/ADP. The final data were determined by substracting the baseline RU (buffer containing ATP/ADP without analyte peptide). The association rate constant, dissociation rate constant and equilibrium constant data were analyzed using ProteOn Manager software version 3.1.0.6. by concatenating the responses of the analyte at variable concentrations.
# PfHsp70‐xT [4] = target: T1, PfHsp70‐xT; test: SPR peptide substrate binding kinetics; design: ka association rate constant: scale not given here; conditions: mean ± SD; for Kd: K D, peptide 1.25-20 nM, 25°C, PBS-Tween; for Kd / ka association rate constant: SPR, PfHsp70‐xT ligand; for koff: read-out: kd dissociation rate constant, SPR, PfHsp70‐xT ligand
# Method: as §2
# PfHsp70‐x [5] = target: T2, PfHsp70‐x; test: ELISA of direct association with hHop; format: binding; conditions: Hop analyte 0.137-300 nM
# Method: The direct association of hHop with PfHsp70‐x was further confirmed using an enzyme linked immunosorbent assay (ELISA) as previously described27 with minor modifications. Briefly, recombinant PfHsp70‐x/PfHsp70‐xT proteins and control BSA (5 μg/mL) were added to wells overnight in 50 mM NaHCO3, pH 9.3 at 4°C. The wells were washed at least three times with TBST, between each subsequent step. After blocking with 1% BSA in TBST, recombinant PfHop protein (analyte) was added in serial dilutions (0.137–300 nM) in the presence or absence of nucleotides (5 mM ATP/ADP) for 2 hours at 25°C. Then the wells were incubated with α‐PfHop primary antibody for 1 hour. Next, primary antibody was incubated with HRP conjugated goat raised anti‐rabbit IgG for 1 hour. HRP development was assayed with TMB substrate solution (Bio‐Scientific, USA) and monitored at 370 nm using a SpectraMax M3 microplate reader (Molecular Devices, USA) every 5 minutes for 30 minutes.
# PfHsp70‐x [6] = target: T2, PfHsp70‐x; test: SPR analysis of association with hHop; format: binding; conditions: 5 mM ATP versus no nucleotide / ADP
# Method: The direct association between PfHsp70‐x and hHop was further explored using SPR analysis. The assay was conducted at 25°C using filter sterilized and degassed PBS‐Tween running buffer [(8 mM Na2HPO4, 1.46 mM KH2PO4, 137 mM NaCl, 3 mM KCl, 0.005% [v/v] Tween 20 and 20 mM EDTA; pH 7.4)] as previously described.22, 24 The recombinant PfHsp70‐x /PfHsp70‐xT (1 μg mL^−1) and BSA (as control) were immobilized onto respective ProteOn GLC sensor chips as ligands. As analyte, the recombinant hHop at varying concentrations (125, 250, 500, 1 000, and 2 000 nM) was passed over the immobilized proteins. The analytes were injected at flow rate of 50 μL min^−1 and association and dissociation occurred in a period of 10 minutes. The assay was then repeated in the presence of 5 mM ADP/ATP. The association rate constant, dissociation rate constant, and equilibrium constant data were processed and analyzed using ProteOn Manager software version 3.1.0.6 involving concatenating the responses of the analyte at variable concentrations.
# PfHsp70‐xT [7] = target: T1, PfHsp70‐xT; test: Slot blot assay of direct association with hHop; format: binding; conditions: hHop immobilized 2, 4, 8 μg, overlaid with PfHsp70‐xT 10 μg/mL
# Method: (§3) Recombinant forms of hHop, control (bovine serum albumin), PfHsp70‐x (positive control) were immobilized onto the nitrocellulose membrane using Bio‐Dot SF apparatus as previously described 22. The proteins were immobilized at final amounts of 2, 4, and 8 μg each respectively per lane. The membrane was blocked with 5% (w/v) fat‐free milk in TBST (50 mM Tris‐HCl pH 7.5, 150 mM NaCl, 0.1% [v/v] Tween 20) and overlaid with either PfHsp70‐x/PfHsp70‐xT (10 μg mL^−1) in the absence and presence of 5 mM ATP/ADP and incubated overnight at 4°C, followed by three washes with TBST for 15 minutes. The nucleotide concentrations were maintained in the subsequent steps of the protocol. Protein was detected by Western blot technique using rabbit raised α‐PfHsp70‐x [1:2000] (Genscript, USA) as primary antibodies and goat raised α‐rabbit IgG secondary HRP‐conjugated antibody [1:4000] (Sigma–Aldrich, USA). Imaging of the protein bands was conducted using the ECL kit as per manufacturer's instructions. The images were captured using ChemiDoc imaging system (Bio‐Rad, USA).
# PfHsp70‐x [8] = target: T2, PfHsp70‐x; test: Slot blot assay of direct association with hHop; format: binding
# Method: as §3
# T2 sequence (K7NTP5 entry or part of it): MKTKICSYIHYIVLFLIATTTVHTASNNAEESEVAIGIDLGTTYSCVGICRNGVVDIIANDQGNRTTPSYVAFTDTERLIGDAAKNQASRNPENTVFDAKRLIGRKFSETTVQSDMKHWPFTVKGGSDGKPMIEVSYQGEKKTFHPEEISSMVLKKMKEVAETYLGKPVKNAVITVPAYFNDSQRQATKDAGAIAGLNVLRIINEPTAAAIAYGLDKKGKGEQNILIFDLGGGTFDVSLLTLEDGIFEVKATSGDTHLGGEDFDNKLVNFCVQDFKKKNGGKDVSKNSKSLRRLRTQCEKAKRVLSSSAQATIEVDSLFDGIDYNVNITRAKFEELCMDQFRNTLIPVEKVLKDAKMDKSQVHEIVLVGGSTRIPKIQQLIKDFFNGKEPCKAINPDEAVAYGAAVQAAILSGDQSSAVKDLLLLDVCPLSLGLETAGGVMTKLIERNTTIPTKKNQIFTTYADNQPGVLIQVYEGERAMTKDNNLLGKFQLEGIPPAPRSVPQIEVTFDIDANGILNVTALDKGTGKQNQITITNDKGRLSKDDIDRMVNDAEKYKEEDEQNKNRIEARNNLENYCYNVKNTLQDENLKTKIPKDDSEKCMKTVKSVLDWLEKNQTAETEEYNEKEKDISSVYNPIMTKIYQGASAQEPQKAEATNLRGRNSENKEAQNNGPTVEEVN
# T1 sequence (K7NTP5 entry or part of it): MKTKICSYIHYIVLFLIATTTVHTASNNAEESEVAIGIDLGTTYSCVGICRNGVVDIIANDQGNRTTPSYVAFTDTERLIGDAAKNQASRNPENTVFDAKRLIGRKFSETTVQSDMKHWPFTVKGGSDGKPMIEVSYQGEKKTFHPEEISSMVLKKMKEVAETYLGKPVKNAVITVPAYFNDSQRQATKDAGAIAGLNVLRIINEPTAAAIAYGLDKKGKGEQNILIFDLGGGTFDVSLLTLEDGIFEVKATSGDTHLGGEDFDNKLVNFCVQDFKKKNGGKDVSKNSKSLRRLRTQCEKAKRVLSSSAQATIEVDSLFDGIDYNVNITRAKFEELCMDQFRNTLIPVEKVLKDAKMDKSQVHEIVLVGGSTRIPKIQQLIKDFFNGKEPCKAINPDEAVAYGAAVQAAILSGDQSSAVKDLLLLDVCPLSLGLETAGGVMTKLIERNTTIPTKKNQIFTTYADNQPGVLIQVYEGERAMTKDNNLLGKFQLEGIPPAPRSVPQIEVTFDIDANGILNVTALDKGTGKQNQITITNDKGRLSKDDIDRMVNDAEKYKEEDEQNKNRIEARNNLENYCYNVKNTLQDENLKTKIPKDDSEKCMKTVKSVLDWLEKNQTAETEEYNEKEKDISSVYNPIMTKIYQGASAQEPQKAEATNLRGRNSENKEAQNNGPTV
compound,measurement,setting,value
Nc1ncnc2c1ncn2[C@@H]1O[C@H](COP(=O)(O)OP(=O)(O)OP(=O)(O)O)[C@@H](O)[C@H]1O [ATP],Kd,PfHsp70‐xT [1],11200 nM
same,Kd,PfHsp70‐x [2],110 nM
ANNNMYRR [ANNNMYRR],Kd,PfHsp70‐x [3]; no nucleotide (NN),2.21 nM
GFTNNNMYRF [GFTNNNMYRF],Kd,PfHsp70‐x [3]; 2 mM ADP,6.25 nM
same,Kd,PfHsp70‐x [3]; no nucleotide (NN),2.4 nM
same,Kd,PfHsp70‐xT [4]; 2 mM ADP,1.4 nM
same,Kd,PfHsp70‐xT [4]; no nucleotide (NN),2.2 nM
"GFTVVLMYRF [GFTVVLMYRF, reference compound]",koff,PfHsp70‐x [3]; + ADP,1e-05 s⁻¹
same,koff,PfHsp70‐x [3]; + ATP,0.000117 s⁻¹
same,koff,PfHsp70‐x [3]; no nucleotide,1.03e-05 s⁻¹
"NRLLTG [NRLLTG, reference compound]",ka association rate constant,PfHsp70‐x [3]; + ADP,1.62 (± 0. 22) 1/ Ms
same,ka association rate constant,PfHsp70‐x [3]; + ATP,1.21 (± 0.23) 1/ Ms
same,koff,PfHsp70‐x [3]; + ADP,1.01e-05 s⁻¹
same,koff,PfHsp70‐x [3]; + ATP,1.01e-05 s⁻¹
same,koff,PfHsp70‐x [3]; no nucleotide,9.97e-06 s⁻¹
same,ka association rate constant,PfHsp70‐xT [4]; + ADP,6.0 (± 0.51) 1/ Ms
same,ka association rate constant,PfHsp70‐xT [4]; no nucleotide,3.15 (± 0.31) 1/ Ms
same,koff,PfHsp70‐xT [4]; + ADP,1e-05 s⁻¹
same,koff,PfHsp70‐xT [4]; + ATP,0.000161 s⁻¹
same,koff,PfHsp70‐xT [4]; no nucleotide,8.67e-06 s⁻¹
NRNNTG [NRNNTG],Kd,PfHsp70‐x [3]; 2 mM ADP,4.31 nM
same,Kd,PfHsp70‐x [3]; no nucleotide (NN),6.91 nM
same,ka association rate constant,PfHsp70‐x [3]; + ADP,2.55 (± 0.23) 1/ Ms
same,ka association rate constant,PfHsp70‐x [3]; + ATP,7.33 (± 0.22) 1/ Ms
same,ka association rate constant,PfHsp70‐x [3]; no nucleotide,2.43 (± 0.45) 1/ Ms
same,koff,PfHsp70‐x [3]; + ADP,1.03e-07 s⁻¹
same,koff,PfHsp70‐x [3]; + ATP,1.01e-06 s⁻¹
same,koff,PfHsp70‐x [3]; no nucleotide,9.49e-07 s⁻¹
same,Kd,PfHsp70‐xT [4]; 2 mM ADP,1.69 nM
same,Kd,PfHsp70‐xT [4]; no nucleotide (NN),7.92 nM
same,ka association rate constant,PfHsp70‐xT [4]; + ADP,5.96 (±0.1) 1/ Ms
same,ka association rate constant,PfHsp70‐xT [4]; + ATP,9.37 (±0.17) 1/ Ms
same,ka association rate constant,PfHsp70‐xT [4]; no nucleotide,3.52 (± 0.18) 1/ Ms
same,koff,PfHsp70‐xT [4]; + ADP,1.01e-08 s⁻¹
same,koff,PfHsp70‐xT [4]; + ATP,1.01e-05 s⁻¹
same,koff,PfHsp70‐xT [4]; no nucleotide,2.79e-08 s⁻¹
hHop: recombinant N-terminally His-tagged human Hsp70‐Hsp90 organizing protein,association with hHop in ELISA,"PfHsp70‐x [5]; PfHsp70‐x immobilized 5 μg/mL, 2 h, 25°C, no nucleotide",occurs in a concentration dependent form
same,association with hHop in ELISA,"PfHsp70‐x [5]; PfHsp70‐x immobilized, 5 mM ADP",occurs in a concentration dependent form
same,association with hHop in ELISA,"PfHsp70‐x [5]; PfHsp70‐x immobilized, 5 mM ATP",inhibited the association
same,inhibition of the PfHsp70‐x-hHop association by ATP,PfHsp70‐x [6],at least tenfold
same,association with hHop in slot blot,PfHsp70‐xT [7],not observed
same,association with hHop in slot blot,"PfHsp70‐x [8]; hHop immobilized 2, 4, 8 μg, overlaid with PfHsp70‐x 10 μg/mL, no nucleotide",occur in a concentration‐dependent manner
same,association with hHop in slot blot,"PfHsp70‐x [8]; overlaid with PfHsp70‐x, 5 mM ADP",appeared to enhance the association
same,association with hHop in slot blot,"PfHsp70‐x [8]; overlaid with PfHsp70‐x, 5 mM ATP",abrogated the interaction
